From US8420657B2 (Novartis AG, priority 2008, dated 2013)

Experiments:
[1] = target: T1, GST-JAK2(808-1132) (Homo sapiens, UniProt O60674); assay: JAK2 kinase assay (Caliper mobility shift, LabChip 3000); type: biochemical
T1 construct: GST-JAK2(808-1132); purchased Invitrogen (Carlsbad, USA) #4288
How it was run: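 Eight-point compound series (final 10–0.003 μM) tested on purchased GST-JAK2 kinase domain (808-1132). Peptide FITC-JAK3tide plus ATP reacted 60 min, 30 °C, then quenched with EDTA; turnover from charge-based separation of substrate and product.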

[2] = test system: JAK2-dependent nuclear translocation of STAT5-GFP in U-2 OS osteosarcoma cells; assay: STAT5 nuclear translocation assay (Cellomics), rhEpo stimulated U-2 OS STAT5-GFP cells; type: cell-based; conditions: Homo sapiens, U2OS; STAT5 translocation pathway
How it was run: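 U-2 OS cells stably expressing STAT5a-GFP and EpoR pre-treated with compound (final 10 μM to 0.003 μM, 0.1% DMSO) for 30 min at 37° C., then stimulated 1 h with 5 U/ml rhEpo. Nuclear-cytoplasmic GFP differential quantified by automated imaging (≥1000 cells/well, Hoechst nuclear mask). IC50 from % translocation normalized to untreated and DMSO-stimulated controls.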

T1 sequence (O60674 808-1132): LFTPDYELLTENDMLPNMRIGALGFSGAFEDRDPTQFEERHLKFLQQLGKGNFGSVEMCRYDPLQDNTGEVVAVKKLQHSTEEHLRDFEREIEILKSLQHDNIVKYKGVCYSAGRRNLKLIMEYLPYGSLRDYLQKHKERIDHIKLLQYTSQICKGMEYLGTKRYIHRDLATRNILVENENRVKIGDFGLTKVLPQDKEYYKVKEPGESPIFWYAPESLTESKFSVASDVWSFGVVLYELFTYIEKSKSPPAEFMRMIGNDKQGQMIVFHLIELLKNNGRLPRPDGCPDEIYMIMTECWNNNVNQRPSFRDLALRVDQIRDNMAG

An IC50 [1] of 4.1 nM and an IC50 [2] of 14.8 nM were found for CCN1CCOC[C@@H]1c1ccc(Nc2ncc3ccn(-c4cc(F)c(CN5CCOCC5)c(F)c4)c3n2)cc1 [Example 508, [7-(3,5-Difluoro-4-morpholin-4-ylmethyl-phenyl)-7H-pyrrolo[2,3-d]pyrimidin-2-yl]-[4-((S)-4-ethyl-morpholin-3-yl)-phenyl]-amine] in this work.
An IC50 [1] of 2.2 nM and an IC50 [2] of 55.5 nM were found for CC1(C)NCCN(c2ccc(Nc3ncc4ccn(-c5cc(F)c(CN6CCOCC6)c(F)c5)c4n3)cn2)C1=O [Example 492, 1-{5-[7-(3,5-Difluoro-4-morpholin-4-ylmethyl-phenyl)-7H-pyrrolo[2,3-d]pyrimidin-2-ylamino]-pyridin-2-yl}-3,3-dimethyl-piperazin-2-one] in this work.
An IC50 [1] of 3.6 nM and an IC50 [2] of 60.5 nM were found for Fc1cc(-n2ccc3cnc(Nc4ccc(OC5CCNC5)nc4)nc32)cc(F)c1CN1CCOCC1 (racemic) [Example 519, [7-(3,5-Difluoro-4-morpholin-4-ylmethyl-phenyl)-7H-pyrrolo[2,3-d]pyrimidin-2-yl]-[6-(pyrrolidin-3-yloxy)-pyridin-3-yl]-amine] in this work.
In the case of Cc1ccc(Nc2ncc3ccn(-c4cc(F)c(CN5CCS(=O)(=O)CC5)c(F)c4)c3n2)cc1CN1CC(O)C1 [Example 423, 1-(5-{7-[4-(1,1-Dioxido-thiomorpholin-4-ylmethyl)-3,5-difluoro-phenyl]-7H-pyrrolo[2,3-d]pyrimidin-2-ylamino}-2-methyl-benzyl)-azetidin-3-ol], the IC50 [1] is reported as ≤ 3 nM and the IC50 [2] is reported as 5.9 nM.
For CN1CCN(Cc2cc(Nc3ncc4ccn(-c5ccc(C(=O)N6CCS(=O)(=O)CC6)c(F)c5)c4n3)ccn2)CC1 [Example 406, (1,1-Dioxido-thiomorpholin-4-yl)-(2-fluoro-4-{2-[2-(4-methyl-piperazin-1-ylmethyl)-pyridin-4-ylamino]-pyrrolo[2,3-d]pyrimidin-7-yl}-phenyl)-methanone], the IC50 [1] was 4 nM and the IC50 [2] was > 4000 nM.
An IC50 [1] of 4.1 nM and an IC50 [2] of 36 nM were found for C[C@@H]1CN(c2ccc(Nc3ncc4ccn(-c5cc(F)cc(F)c5)c4n3)cn2)C[C@H](C)N1 [Example 453, [7-(3,5-Difluoro-phenyl)-7H-pyrrolo[2,3-d]pyrimidin-2-yl]-[6-(cis-3,5-dimethyl-piperazin-1-yl)-pyridin-3-yl]-amine] in this work.
For COC1CN(Cc2cc(Nc3ncc4ccn(-c5cc(F)c(CN6CCOCC6)c(F)c5)c4n3)ccc2C)C1 [Example 405, [7-(3,5-Difluoro-4-morpholin-4-ylmethyl-phenyl)-7H-pyrrolo[2,3-d]pyrimidin-2-yl]-[3-(3-methoxy-azetidin-1-ylmethyl)-4-methyl-phenyl]-amine], the IC50 [1] was ≤ 3 nM and the IC50 [2] was 3.2 nM.
An IC50 [1] of 61 nM and an IC50 [2] of 17 nM were found for O=C1CNCCN1c1ccc(Nc2ncc3ccn(-c4cc(F)c(CN5CCOCC5)c(F)c4)c3n2)cn1 [Example 470, 1-{5-[7-(3,5-Difluoro-4-morpholin-4-ylmethyl-phenyl)-7H-pyrrolo[2,3-d]pyrimidin-2-ylamino]-pyridin-2-yl}-piperazin-2-one] in this work.
OC1CCN(c2ccc(Nc3ncc4ccn(-c5cc(F)c(CN6CCOCC6)c(F)c5)c4n3)cn2)C1 (racemic) [Example 347, 1-{5-[7-(3,5-Difluoro-4-morpholin-4-ylmethyl-phenyl)-7H-pyrrolo[2,3-d]pyrimidin-2-ylamino]-pyridin-2-yl}-pyrrolidin-3-ol] was tested, and the IC50 [1] was ≤ 3 nM and the IC50 [2] was 13.3 nM.
In the case of O=C(c1ccc(-n2ccc3cnc(Nc4ccc(CC5CCNCC5)cc4)nc32)cc1F)N1CCOCC1 [Example 381, {2-Fluoro-4-[2-(4-piperidin-4-ylmethyl-phenylamino)-pyrrolo[2,3-d]pyrimidin-7-yl]-phenyl}-morpholin-4-yl-methanone], the IC50 [1] is reported as ≤ 3 nM and the IC50 [2] is reported as 43 nM.
An IC50 [1] of 5.1 nM and an IC50 [2] of 6.1 nM were found for Fc1cc(-n2ccc3cnc(Nc4ccc(CC5CCNCC5)cc4)nc32)cc(F)c1CN1CCOCC1 [Example 383, [7-(3,5-Difluoro-4-morpholin-4-ylmethyl-phenyl)-7H-pyrrolo[2,3-d]pyrimidin-2-yl]-(4-piperidin-4-ylmethyl-phenyl)-amine] in this work.
An IC50 [1] of 5.1 nM and an IC50 [2] of 104 nM were found for O=C(c1cccc(Nc2ncc3ccn(-c4cc(F)c(CN5CCOCC5)c(F)c4)c3n2)c1)N1CCN(C2CC2)CC1 [Example 459, (4-Cyclopropyl-piperazin-1-yl)-{3-[7-(3,5-difluoro-4-morpholin-4-ylmethyl-phenyl)-7H-pyrrolo[2,3-d]pyrimidin-2-ylamino]-phenyl}-methanone] in this work.
An IC50 [1] of 7 nM and an IC50 [2] of 138 nM were found for Fc1cc(-n2ccc3cnc(Nc4ccc(Cl)c(CN5CCNCC5)c4)nc32)cc(F)c1CN1CCOCC1 [Example 401, (4-Chloro-3-piperazin-1-ylmethyl-phenyl)-[7-(3,5-difluoro-4-morpholin-4-ylmethyl-phenyl)-7H-pyrrolo[2,3-d]pyrimidin-2-yl]-amine] in this work.
In the case of Fc1cc(-n2ccc3cnc(Nc4ccc([C@@H]5CNCCN5)cc4)nc32)cc(F)c1CN1CCOCC1 [Example 475, [7-(3,5-Difluoro-4-morpholin-4-ylmethyl-phenyl)-7H-pyrrolo[2,3-d]pyrimidin-2-yl]-((R)-4-piperazin-2-yl-phenyl)-amine], the IC50 [1] is reported as ≤ 3 nM and the IC50 [2] is reported as 5.3 nM.
An IC50 [1] of 8.6 nM and an IC50 [2] of 65 nM were found for Cc1ccc(Nc2ncc3ccn(-c4ccc(C(=O)N5CCOCC5)c(F)c4)c3n2)cc1CN1CCN(C2CC2)CC1 [Example 366, (4-{2-[3-(4-Cyclopropyl-piperazin-1-ylmethyl)-4-methyl-phenylamino]-pyrrolo[2,3-d]pyrimidin-7-yl}-2-fluoro-phenyl)-morpholin-4-yl-methanone] in this work.
With Cc1ccc(Nc2ncc3ccn(-c4ccc(S(=O)(=O)NC(C)(C)C)cc4)c3n2)cc1CN1CCNCC1 [Example 376, N-tert-Butyl-4-[2-(4-methyl-3-piperazin-1-ylmethyl-phenylamino)-pyrrolo[2,3-d]pyrimidin-7-yl]-benzenesulfonamide] the IC50 [1] was ≤ 3 nM and the IC50 [2] was 67 nM.
For CN1CCOC[C@@H]1c1ccc(Nc2ncc3ccn(-c4cc(F)c(CN5CCOCC5)c(F)c4)c3n2)cc1 [Example 509, [7-(3,5-Difluoro-4-morpholin-4-ylmethyl-phenyl)-7H-pyrrolo[2,3-d]pyrimidin-2-yl]-[4-((S)-4-methyl-morpholin-3-yl)-phenyl]-amine], the IC50 [1] was < 3 nM and the IC50 [2] was 43.1 nM.
Cc1ccc(Nc2ncc3ccn(-c4cc(F)c(CN5CCOCC5)c(F)c4)c3n2)cc1CN1CC(O)C1 [Example 394, 1-{5-[7-(3,5-Difluoro-4-morpholin-4-ylmethyl-phenyl)-7H-pyrrolo[2,3-d]pyrimidin-2-ylamino]-2-methyl-benzyl}-azetidin-3-ol] was tested, and the IC50 [1] was ≤ 3 nM and the IC50 [2] was 1.6 nM.
With Cc1ccc(Nc2ncc3ccn(-c4cc(F)c(CN5CCS(=O)(=O)CC5)c(F)c4)c3n2)cc1CN1CCN(C)CC1 [Example 421, {7-[4-(1,1-Dioxido-thiomorpholin-4-ylmethyl)-3,5-difluoro-phenyl]-7H-pyrrolo[2,3-d]pyrimidin-2-yl}-[4-methyl-3-(4-methyl-piperazin-1-ylmethyl)-phenyl]-amine] the IC50 [1] was ≤ 3 nM and the IC50 [2] was 2.7 nM.
In the case of Fc1cc(-n2ccc3cnc(Nc4ccc(C5CNCCO5)cc4)nc32)cc(F)c1CN1CCOCC1 (racemic) [Example 354, [7-(3,5-Difluoro-4-morpholin-4-ylmethyl-phenyl)-7H-pyrrolo[2,3-d]pyrimidin-2-yl]-(4-morpholin-2-yl-phenyl)-amine], the IC50 [1] is reported as ≤ 3 nM and the IC50 [2] is reported as 1.3 nM.
An IC50 [1] of 24 nM and an IC50 [2] of 152 nM were found for O=C(c1cc(Nc2ncc3ccn(-c4cc(F)c(CN5CCOCC5)c(F)c4)c3n2)ccn1)N1CCOC2(COC2)C1 [Example 362, {4-[7-(3,5-Difluoro-4-morpholin-4-ylmethyl-phenyl)-7H-pyrrolo[2,3-d]pyrimidin-2-ylamino]-pyridin-2-yl}-(2,5-dioxa-8-aza-spiro[3.5]non-8-yl)-methanone] in this work.
With OCCOc1ccc(Nc2ncc3ccn(-c4cc(F)c(CN5CCOCC5)c(F)c4)c3n2)cn1 [Example 518, 2-{5-[7-(3,5-Difluoro-4-morpholin-4-ylmethyl-phenyl)-7H-pyrrolo[2,3-d]pyrimidin-2-ylamino]-pyridin-2-yloxy}-ethanol] the IC50 [1] was ≤ 3 nM and the IC50 [2] was 39.5 nM.
With Fc1cc(-n2ccc3cnc(Nc4ccc(N5CCN(C6CC6)CC5)nc4)nc32)cc(F)c1CN1CCOCC1 [Example 457, [6-(4-Cyclopropyl-piperazin-1-yl)-pyridin-3-yl]-[7-(3,5-difluoro-4-morpholin-4-ylmethyl-phenyl)-7H-pyrrolo[2,3-d]pyrimidin-2-yl]-amine] the IC50 [1] was ≤ 3 nM and the IC50 [2] was 21 nM.
Fc1cc(-n2ccc3cnc(Nc4ccnc(CN5CCNC(C(F)(F)F)C5)c4)nc32)cc(F)c1CN1CCOCC1 (racemic) [Example 408, [7-(3,5-Difluoro-4-morpholin-4-ylmethyl-phenyl)-7H-pyrrolo[2,3-d]pyrimidin-2-yl]-[2-(3-trifluoromethyl-piperazin-1-ylmethyl)-pyridin-4-yl]-amine] was tested, and the IC50 [1] was ≤ 3 nM and the IC50 [2] was 9.2 nM.
For Cc1cc(Nc2ncc3ccn(-c4cc(F)c(CN5CCOCC5)c(F)c4)c3n2)cnc1N1CCNCC1=O [Example 495, 1-{5-[7-(3,5-Difluoro-4-morpholin-4-ylmethyl-phenyl)-7H-pyrrolo[2,3-d]pyrimidin-2-ylamino]-3-methyl-pyridin-2-yl}-piperazin-2-one], the IC50 [1] was ≤ 3 nM and the IC50 [2] was 51 nM.
An IC50 [1] of 4.1 nM and an IC50 [2] of 60 nM were found for CN1CCN(Cc2ccc(Nc3ncc4ccn(-c5cc(F)c(CN6CCOCC6)c(F)c5)c4n3)cn2)CC1=O [Example 505, 4-{5-[7-(3,5-Difluoro-4-morpholin-4-methyl-phenyl)-7H-pyrrolo[2,3-d]pyrimidin-2-ylamino]-pyridin-2-ylmethyl}-1-methyl-piperazin-2-one] in this work.
